Assay results reported in the NIST ThermoML archive (doi:10.1021/je300938w).

Columns and labels:
[1] = refractive index (Na D-line) (dimensionless); wn = mass fraction of the nth substance listed; conditions: 101 kPa, Liquid, Standard Abbe refractometry
[2] = wn = mass fraction of the nth substance listed; conditions: 101 kPa, Liquid; for viscosity: Concentric cylinders viscometry; for mass density: Vibrating tube method

CC(O)CNCC(C)O (stereo not given) [N-(2-hydroxypropyl)-2-hydroxy-1-propanamine] + O
Conditions	mass density, [2] [kg/m3]	refractive index, [1]	viscosity, [2] [mPa·s]
298.15 K, w1 = 0.05	1000.6	1.34052	1.117
298.15 K, w1 = 0.1	1003.53	1.34766	1.394
298.15 K, w1 = 0.15	1006.99	1.35486	1.814
298.15 K, w1 = 0.2	1010.4	1.3621	2.288
298.15 K, w1 = 0.25	1014.1	1.36925	3.026
303.15 K, w1 = 0.05	999.133	1.33988	0.9968
303.15 K, w1 = 0.1	1001.97	1.34693	1.228
303.15 K, w1 = 0.15	1005.27	1.35421	1.569
303.15 K, w1 = 0.2	1008.5	1.3613	1.952
303.15 K, w1 = 0.25	1011.98	1.36822	2.539
308.15 K, w1 = 0.05	997.454	1.33919	0.8984
308.15 K, w1 = 0.1	1000.19	1.34623	1.093
308.15 K, w1 = 0.15	1003.35	1.35332	1.38
308.15 K, w1 = 0.2	1006.41	1.36036	1.695
308.15 K, w1 = 0.25	1009.69	1.36736	2.167
313.15 K, w1 = 0.05	995.576	1.33844	0.8189
313.15 K, w1 = 0.1	998.214	1.34533	0.9814
313.15 K, w1 = 0.15	1001.24	1.35237	1.224
313.15 K, w1 = 0.2	1004.14	1.35947	1.485
313.15 K, w1 = 0.25	1007.23	1.36641	1.871
318.15 K, w1 = 0.05	993.508	1.33755	0.7442
318.15 K, w1 = 0.1	996.055	1.3445	0.8856
318.15 K, w1 = 0.15	998.951	1.35149	1.095
318.15 K, w1 = 0.2	1001.71	1.35838	1.313
318.15 K, w1 = 0.25	1004.62	1.36537	1.633
323.15 K, w1 = 0.05	991.263	1.33675	0.6884
323.15 K, w1 = 0.1	993.722	1.34355	0.8047
323.15 K, w1 = 0.15	996.497	1.35044	0.9924
323.15 K, w1 = 0.2	999.106	1.35739	1.171
323.15 K, w1 = 0.25	1001.86	1.36423	1.438
328.15 K, w1 = 0.05	988.852	1.33566	0.6407
328.15 K, w1 = 0.1	991.224	1.34256	0.7357
328.15 K, w1 = 0.15	993.882	1.3494	0.9053
328.15 K, w1 = 0.2	996.358	1.35615	1.052
328.15 K, w1 = 0.25	998.953	1.36294	1.278
333.15 K, w1 = 0.05	986.277	1.33467	0.5833
333.15 K, w1 = 0.1	988.56	1.34147	0.6793
333.15 K, w1 = 0.15	991.114	1.34831	0.8324
333.15 K, w1 = 0.2	993.463	1.35501	0.9512
333.15 K, w1 = 0.25	995.91	1.36175	1.145
338.15 K, w1 = 0.05	983.349	1.33363	0.5507
338.15 K, w1 = 0.1	985.762	1.34037	0.6341
338.15 K, w1 = 0.15	988.199	1.34702	0.7693
338.15 K, w1 = 0.2	990.404	1.35377	0.8643
338.15 K, w1 = 0.25	992.735	1.36051	1.032
343.15 K, w1 = 0.05	980.387	1.33224	0.5267
343.15 K, w1 = 0.1	982.81	1.33899	0.6006
343.15 K, w1 = 0.15	985.138	1.34583	0.725
343.15 K, w1 = 0.2	987.241	1.35253	0.8146
343.15 K, w1 = 0.25	989.434	1.35922	0.9579
